Measurements taken from patent publication US20240174618A1, “SUBSTITUTED (2-HETEROARYLOXYPHENYL)SULFONATES, SALTS THEREOF AND THEIR USE AS HERBICIDAL AGENTS” (Bayer Aktiengesellschaft, priority 2021, published 2024).

How the values were obtained:
Type in all cases: in vivo
[1] = test system: Alopecurus myosuroides (ALOMY); assay: A. Herbicidal pre-emergence efficacy, ALOMY; conditions: scored visually after about 3 weeks vs untreated controls
Text: Seeds of mono- and dicotyledonous weed plants were placed in plastic pots in sandy loam soil (doubly sown with one species each of mono- or dicotyledonous weed plants per pot) and covered with soil. The compounds of the invention, formulated in the form of wettable powders (WP) or as emulsion concentrates (EC), were then applied onto the surface of the covering soil as aqueous suspension or emulsion with addition of 0.5% additive at a water application rate of 600 liters per hectare (converted). After the treatment, the pots were placed in a greenhouse and kept under good growth conditions for the test plants. After about 3 weeks, the efficacy of the preparations was scored visually in comparison with untreated controls as percentages.
For example, • 100% efficacy=plants have died, • 0% efficacy=like untreated control plants.
Tables A1a to A12c below show the effects of selected compounds of the general formula (I) according to table 1 on various harmful plants at an application rate corresponding to 1280 g/ha or less, which were obtained by the experimental procedure mentioned above.

[2] = test system: Echinochloa crus-galli (ECHCG); assay: A. Herbicidal pre-emergence efficacy, ECHCG; conditions: scored visually after about 3 weeks vs untreated controls
Procedure, shortened: (§1)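 Pre-emergence soil-surface spray in sandy loam pots, WP/EC in water plus 0.5% additive, 600 L/ha. Visual % damage rating after about 3 weeks in greenhouse vs. untreated; 0% = control-like, 100% = dead plants. Rates up to 1280 g/ha.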

Stellaria media (STEME) = assay: A. Herbicidal pre-emergence efficacy, STEME
Procedure, shortened: as §1

Kochia scoparia (KCHSC) = assay: B. Herbicidal post-emergence efficacy, KCHSC; conditions: for Post-emergence efficacy against KCHSC in %: rated visually after about 3 weeks; for Post-emergence efficacy against KCHSC: 1280 g/ha
Procedure, shortened: (§2)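 First, seeds were sown in sandy loam and grown 2 to 3 weeks under controlled greenhouse conditions. Next, foliage at the one-leaf stage received the formulated compound in water with 0.5% additive (600 L/ha, 1280 g/ha or less). Finally, damage was rated visually after about 3 weeks against untreated plants.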

Setaria viridis (SETVI) = assay: B. Herbicidal post-emergence efficacy, SETVI
Procedure, shortened: as §2

[3] = test system: Abutilon theophrasti (ABUTH); assay: C. Herbicidal pre-emergence efficacy, ABUTH; conditions: scored after about 3 weeks
Procedure, shortened: (§3)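 Pre-emergence test: formulated compounds sprayed as aqueous suspension or emulsion with 0.5% additive at 600 l/ha onto soil covering sown seeds, at rates corresponding to 320 g/ha or less. After about 3 weeks in greenhouse, efficacy scored visually as percent versus untreated controls (100% = plants dead).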

[4] = test system: Polygonum convolvulus (POLCO); assay: C. Herbicidal pre-emergence efficacy, POLCO; conditions: scored after about 3 weeks
Procedure, shortened: as §3

[5] = test system: Amaranthus retroflexus (AMARE); assay: E. Herbicidal post-emergence efficacy, AMARE
Procedure, shortened: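 Greenhouse post-emergence spray, one-leaf stage (2–3 wk after sowing, sandy loam); WP/EC formulation, aqueous + 0.5% additive, 600 l/ha water; rates 320 g/ha or less. Visual rating ~3 wk later vs untreated; 0% = control-like, 100% = dead.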

## O=S(=O)(CCC(F)(F)F)Oc1c(Br)cccc1Oc1ncc(Cl)cn1 [Example I-31]
[1]; 1280 g/ha
  Pre-emergence efficacy against ALOMY: 90%
[2]; 1280 g/ha
  Pre-emergence efficacy against ECHCG: 100%
Stellaria media (STEME); dosage 80 g/ha
  Pre-emergence efficacy against STEME: 90%
Stellaria media (STEME); dosage 320 g/ha
  Pre-emergence efficacy against STEME: 100%
Stellaria media (STEME); dosage 1280 g/ha
  Pre-emergence efficacy against STEME: 100%
Kochia scoparia (KCHSC); 80 g/ha
  Post-emergence efficacy against KCHSC in %: 90%
Kochia scoparia (KCHSC); 320 g/ha
  Post-emergence efficacy against KCHSC in %: 100%
Kochia scoparia (KCHSC)
  Post-emergence efficacy against KCHSC: 100%
Setaria viridis (SETVI); 1280 g/ha
  Post-emergence efficacy against SETVI: 90%

## O=S(=O)(CCCC(F)(F)F)Oc1c(F)cccc1Oc1ncc(F)cn1 [Example I-42]
[1]; 320 g/ha
  Pre-emergence efficacy against ALOMY: 100%
[1]; 1280 g/ha
  Pre-emergence efficacy against ALOMY: 100%
[2]; 80 g/ha
  Pre-emergence efficacy against ECHCG: 100%
[2]; 320 g/ha
  Pre-emergence efficacy against ECHCG: 100%
[2]; 1280 g/ha
  Pre-emergence efficacy against ECHCG: 100%
Stellaria media (STEME); dosage 80 g/ha
  Pre-emergence efficacy against STEME: 100%
Stellaria media (STEME); dosage 320 g/ha
  Pre-emergence efficacy against STEME: 100%
Stellaria media (STEME); dosage 1280 g/ha
  Pre-emergence efficacy against STEME: 100%
Kochia scoparia (KCHSC); 80 g/ha
  Post-emergence efficacy against KCHSC in %: 90%
Kochia scoparia (KCHSC); 320 g/ha
  Post-emergence efficacy against KCHSC in %: 100%
Kochia scoparia (KCHSC)
  Post-emergence efficacy against KCHSC: 100%
[3]; 80 g/ha
  Pre-emergence efficacy against ABUTH: 100%
[3]; 320 g/ha
  Pre-emergence efficacy against ABUTH: 100%
[4]; 80 g/ha
  Pre-emergence efficacy against POLCO: 100%
[4]; 320 g/ha
  Pre-emergence efficacy against POLCO: 100%
[5]; application rate 80 g/ha
  Post-emergence efficacy against AMARE in %: 100%
[5]; application rate 320 g/ha
  Post-emergence efficacy against AMARE in %: 100%

## O=S(=O)(CCC(F)(F)F)Oc1c(Br)cccc1Oc1ncc(F)cn1 [Example I-43]
[1]; 1280 g/ha
  Pre-emergence efficacy against ALOMY: 90%
[2]; 320 g/ha
  Pre-emergence efficacy against ECHCG: 100%
[2]; 1280 g/ha
  Pre-emergence efficacy against ECHCG: 100%
Stellaria media (STEME); dosage 320 g/ha
  Pre-emergence efficacy against STEME: 100%
Stellaria media (STEME); dosage 1280 g/ha
  Pre-emergence efficacy against STEME: 100%
Kochia scoparia (KCHSC); 80 g/ha
  Post-emergence efficacy against KCHSC in %: 90%
Kochia scoparia (KCHSC); 320 g/ha
  Post-emergence efficacy against KCHSC in %: 90%
Kochia scoparia (KCHSC)
  Post-emergence efficacy against KCHSC: 100%
[3]; 80 g/ha
  Pre-emergence efficacy against ABUTH: 80%
[3]; 320 g/ha
  Pre-emergence efficacy against ABUTH: 100%
[4]; 80 g/ha
  Pre-emergence efficacy against POLCO: 90%
[4]; 320 g/ha
  Pre-emergence efficacy against POLCO: 90%
[5]; application rate 80 g/ha
  Post-emergence efficacy against AMARE in %: 100%
[5]; application rate 320 g/ha
  Post-emergence efficacy against AMARE in %: 100%

## Cc1cccc(Oc2ncc(F)cn2)c1OS(=O)(=O)CCC(F)(F)F [Example I-45]
[1]; 320 g/ha
  Pre-emergence efficacy against ALOMY: 90%
[1]; 1280 g/ha
  Pre-emergence efficacy against ALOMY: 100%
[2]; 80 g/ha
  Pre-emergence efficacy against ECHCG: 90%
[2]; 320 g/ha
  Pre-emergence efficacy against ECHCG: 100%
[2]; 1280 g/ha
  Pre-emergence efficacy against ECHCG: 100%
Stellaria media (STEME); dosage 80 g/ha
  Pre-emergence efficacy against STEME: 90%
Stellaria media (STEME); dosage 320 g/ha
  Pre-emergence efficacy against STEME: 100%
Stellaria media (STEME); dosage 1280 g/ha
  Pre-emergence efficacy against STEME: 100%
Kochia scoparia (KCHSC); 320 g/ha
  Post-emergence efficacy against KCHSC in %: 90%
Kochia scoparia (KCHSC)
  Post-emergence efficacy against KCHSC: 100%
[3]; 80 g/ha
  Pre-emergence efficacy against ABUTH: 100%
[3]; 320 g/ha
  Pre-emergence efficacy against ABUTH: 100%
[4]; 80 g/ha
  Pre-emergence efficacy against POLCO: 100%
[4]; 320 g/ha
  Pre-emergence efficacy against POLCO: 100%
[5]; application rate 320 g/ha
  Post-emergence efficacy against AMARE in %: 80%

## Cc1cccc(Oc2ncc(F)cn2)c1OS(=O)(=O)CCCC(F)(F)F [Example I-46]
[1]; 1280 g/ha
  Pre-emergence efficacy against ALOMY: 100%
[2]; 80 g/ha
  Pre-emergence efficacy against ECHCG: 100%
[2]; 320 g/ha
  Pre-emergence efficacy against ECHCG: 100%
[2]; 1280 g/ha
  Pre-emergence efficacy against ECHCG: 100%
Stellaria media (STEME); dosage 80 g/ha
  Pre-emergence efficacy against STEME: 90%
Stellaria media (STEME); dosage 320 g/ha
  Pre-emergence efficacy against STEME: 100%
Stellaria media (STEME); dosage 1280 g/ha
  Pre-emergence efficacy against STEME: 100%
Kochia scoparia (KCHSC)
  Post-emergence efficacy against KCHSC: 100%
[3]; 80 g/ha
  Pre-emergence efficacy against ABUTH: 100%
[3]; 320 g/ha
  Pre-emergence efficacy against ABUTH: 100%
[4]; 80 g/ha
  Pre-emergence efficacy against POLCO: 90%
[4]; 320 g/ha
  Pre-emergence efficacy against POLCO: 100%
[5]; application rate 320 g/ha
  Post-emergence efficacy against AMARE in %: 90%

## O=S(=O)(CCC(F)(F)F)Oc1c(F)cccc1Oc1ncc(F)cn1 [Example I-47]
[1]; 320 g/ha
  Pre-emergence efficacy against ALOMY: 100%
[1]; 1280 g/ha
  Pre-emergence efficacy against ALOMY: 100%
[2]; 80 g/ha
  Pre-emergence efficacy against ECHCG: 100%
[2]; 320 g/ha
  Pre-emergence efficacy against ECHCG: 100%
[2]; 1280 g/ha
  Pre-emergence efficacy against ECHCG: 100%
Stellaria media (STEME); dosage 80 g/ha
  Pre-emergence efficacy against STEME: 100%
Stellaria media (STEME); dosage 320 g/ha
  Pre-emergence efficacy against STEME: 100%
Stellaria media (STEME); dosage 1280 g/ha
  Pre-emergence efficacy against STEME: 100%
Kochia scoparia (KCHSC); 80 g/ha
  Post-emergence efficacy against KCHSC in %: 100%
Kochia scoparia (KCHSC); 320 g/ha
  Post-emergence efficacy against KCHSC in %: 100%
Kochia scoparia (KCHSC)
  Post-emergence efficacy against KCHSC: 100%
[3]; 80 g/ha
  Pre-emergence efficacy against ABUTH: 100%
[3]; 320 g/ha
  Pre-emergence efficacy against ABUTH: 100%
[4]; 80 g/ha
  Pre-emergence efficacy against POLCO: 100%
[4]; 320 g/ha
  Pre-emergence efficacy against POLCO: 100%
[5]; application rate 80 g/ha
  Post-emergence efficacy against AMARE in %: 100%
[5]; application rate 320 g/ha
  Post-emergence efficacy against AMARE in %: 100%

## O=S(=O)(CC1CC1(Cl)Cl)Oc1c(F)cccc1Oc1ncc(Cl)cn1 (stereo not shown) [Example I-57]
[1]; 1280 g/ha
  Pre-emergence efficacy against ALOMY: 100%
[2]; 1280 g/ha
  Pre-emergence efficacy against ECHCG: 100%
Stellaria media (STEME); dosage 320 g/ha
  Pre-emergence efficacy against STEME: 100%
Stellaria media (STEME); dosage 1280 g/ha
  Pre-emergence efficacy against STEME: 100%
Kochia scoparia (KCHSC); 80 g/ha
  Post-emergence efficacy against KCHSC in %: 90%
Kochia scoparia (KCHSC); 320 g/ha
  Post-emergence efficacy against KCHSC in %: 90%
Kochia scoparia (KCHSC)
  Post-emergence efficacy against KCHSC: 90%
Setaria viridis (SETVI); 320 g/ha
  Post-emergence efficacy against SETVI: 90%
Setaria viridis (SETVI); 1280 g/ha
  Post-emergence efficacy against SETVI: 90%
